The source made the active and inactive calls. The rule behind the calls is not given here.
Legend:
H9c2 [1] = assay: Induction of NO release in rat H9c2 cells under hypoxia condition at 10 uM by Griess reagent assay relative to control; type: functional
[2] = Induction of NO release in rat H9c2 cells at 10 uM by Griess reagent assay relative to control; type: functional
Mus musculus [3] = assay: Prevention of myocardial hypoxia injury in isoproterenol-induced male C57 mouse myocardial injury model assessed as prevention of bundle collagen fiber deposition at 5 mg/kg, IG once daily for 3 consecutive days by Masson staining based analysis; type: functional, organism-based; conditions: time 3.0 day
H9c2 [4] = assay: Prevention of hypoxia-induced decrease cell viability of rat H9c2 cells at 10 uM by CCK8 assay; type: functional, cell-based
H9c2 [5] = assay: Prevention of hypoxia-induced decrease in ATP level in rat H9c2 cells at 10 uM […] (Rvb =- 19.6 nmol/mg); type: ADME, cell-based; conditions: h9c2, 10 µM
[6] = Toxicity in male C57 mouse assessed as adverse effect at 405 mg/kg, ip measured up to 14 days observation period; type: organism-based; conditions: in vivo, 336 h, time < 14 day
H9c2 [7] = assay: Prevention of hypoxia-induced apoptosis in rat H9c2 cells assessed as decrease in late apoptosis and necrosis by measuring reduced red fluorescence at 10 uM incubated for 4 hrs by confocal microscopy with Annexin V-FITC and propidium iodide (PI) double staining analysis; type: functional, cell-based
Mus musculus [8] = assay: Prevention of myocardial hypoxia injury in isoproterenol-induced male C57 mouse myocardial injury model assessed as prevention of lamellar collagen fiber deposition at 5 mg/kg, IG once daily for 3 consecutive days by Masson staining based analysis; type: functional, organism-based; conditions: time 3.0 day
Mus musculus [9] = assay: Prevention of myocardial hypoxia injury in isoproterenol-induced male C57 mouse myocardial injury model assessed as decrease in ACE expression at 5 mg/kg, IG once daily for 3 consecutive days by immunohistochemistry; type: functional, organism-based; conditions: time 3.0 day
H9c2 [10] = assay: Prevention of hypoxia-induced apoptosis in rat H9c2 cells assessed as decrease in early apoptosis by measuring reduced green fluorescence at 10 uM incubated for 4 hrs by confocal microscopy with Annexin V-FITC and propidium iodide (PI) double staining analysis; type: functional, cell-based
Mus musculus [11] = assay: Prevention of myocardial hypoxia injury in isoproterenol-induced male C57 mouse myocardial injury model assessed as prevention of lamellar collagen fiber deposition at 5 mg/kg, ip once daily for 3 consecutive days by Masson staining based analysis; type: functional, organism-based; conditions: time 3.0 day
H9c2 [12] = assay: Induction of NO release in rat H9c2 cells under hypoxia condition at 10 uM measured for first 30 mins by Griess reagent assay relative to control; type: functional; conditions: 0.5 h
Mus musculus [13] = assay: Prevention of myocardial hypoxia injury in isoproterenol-induced male C57 mouse myocardial injury model assessed as pathological myocardial change by measuring myocardial cell damage at 5 mg/kg, IG once daily for 3 consecutive days by hematoxylin and eosin staining based analysis; type: functional, organism-based; conditions: time 3.0 day
Mus musculus [14] = assay: Prevention of myocardial hypoxia injury in isoproterenol-induced male C57 mouse myocardial injury model assessed as decrease in heart weight ratio at 5 mg/kg, ip once daily for 3 consecutive days (reference value: 0.68%); type: functional; design: scale not given: the % may be the effect or the level left; conditions: time 3 day
Mus musculus [15] = assay: Prevention of myocardial hypoxia injury in isoproterenol-induced male C57 mouse myocardial injury model assessed as pathological myocardial change by cell damage at 5 mg/kg, ip once daily for 3 consecutive days by hematoxylin and eosin staining based analysis; type: functional, organism-based; conditions: time 3.0 day
Mus musculus [16] = assay: Prevention of myocardial hypoxia injury in isoproterenol-induced male C57 mouse myocardial injury model assessed as heart weight ratio at 5 mg/kg, ip once daily for 3 consecutive days (reference value: 0.60%); type: functional; conditions: time 3 day
Mus musculus [17] = assay: Prevention of myocardial hypoxia injury in isoproterenol-induced male C57 mouse myocardial injury model assessed as decrease in myocardial size at 5 mg/kg, ip once daily for 3 consecutive days (reference value: 6.47 mm); type: functional; conditions: time 3 day
Mus musculus [18] = assay: Prevention of myocardial hypoxia injury in isoproterenol-induced male C57 mouse myocardial injury model assessed as decrease in mTORC1 expression at 5 mg/kg, IG once daily for 3 consecutive days by immunohistochemistry; type: functional, organism-based; conditions: time 3.0 day

| Compound | Activity (H9c2 [1]) | Activity [2] [%] | also measured |
| --- | --- | --- | --- |
| CN(N=O)c1ccc(OCc2ccc([N+](=O)[O-])cc2Cl)cc1 | Active | <5 |  |
| Cc1ccc([N+](=O)[O-])c(COc2ccc(N(C)N=O)cc2)c1 |  | <5 |  |
| Cc1cc(COc2ccc(N(C)N=O)cc2)ccc1[N+](=O)[O-] |  | <5 |  |
| CN(N=O)c1ccc(OCc2ccccc2[N+](=O)[O-])cc1 | Active | <5 |  |
| Cc1ccc(COc2ccc(N(C)N=O)cc2)c([N+](=O)[O-])c1 |  | <5 |  |
| CN(N=O)c1ccc(OCc2ccc([N+](=O)[O-])cc2)cc1 | Active | <5 |  |
| Cc1cc([N+](=O)[O-])ccc1COc1ccc(N(C)N=O)cc1 | Active | <5 |  |
| CN(N=O)c1ccc(OCc2c(Cl)cccc2[N+](=O)[O-])cc1 | Active | <5 |  |
| O=[N+]([O-])O[C@@H]1CO[C@H]2[C@@H]1OC[C@@H]2O [ISOSORBIDE MONONITRATE] |  |  | Activity (Mus musculus [3]): Active; N6 More Efficacious Than Ismn; Activity (H9c2 [4]): Active; Partially Restores Cell Viability; Activity (H9c2 [5]): 25.3 nmol/mg; Activity [6]: Toxic; Activity (H9c2 [7]): Active; Reduced Red Fluorescence To Certain Extents; Activity (Mus musculus [8]): Active; N6 More Efficacious Than Ismn; Activity (Mus musculus [9]): Active; Activity (H9c2 [10]): Active; Activity (Mus musculus [11]): inactive; Activity (H9c2 [12]): ~30%; Activity (Mus musculus [13]): inactive; Activity (Mus musculus [14]): 0.61%; Activity (Mus musculus [15]): inactive; Activity (Mus musculus [16]): 0.55%; Activity (Mus musculus [17]): 3.93 mm; Activity (Mus musculus [18]): Active |
| CN(N=O)c1ccc(OCc2ccc(Cl)cc2[N+](=O)[O-])cc1 |  | <5 |  |
| CN(N=O)c1ccc(OCc2cc(Cl)ccc2[N+](=O)[O-])cc1 |  | <5 |  |
| CN(N=O)c1ccc(OCc2ccc(Br)cc2[N+](=O)[O-])cc1 |  | <5 |  |
